These results are taken from patent publication EP1226131B1, “ISOXAZOLECARBOXAMIDE DERIVATIVES” (RECORDATI INDUSTRIA CHIMICA E FARMACEUTICA S.p.a., priority 1999, dated 2001).

Data set [1] has as its system α1L adrenoceptor. Put plainly: Functional antagonism of noradrenaline-induced contractions of rabbit aorta pretreated with chloroethylclonidine. The settings on record: functional affinity, NA-induced contractions. Format: biochemical. The protocol: Adult male New Zealand rabbits were sacrificed by cervical dislocation. The aorta was removed, placed in Krebs-Henseleit buffer and dissected free of adhering tissue.
Each antagonist concentration was tested using 2-3 aortic rings from different rabbits.
Dose ratios (i.e., the ratio between the concentrations of noradrenaline required to produce half-maximal response in the presence and in the absence of the test antagonist) were calculated at each concentration of the compounds.

The subject of data set [2] is urethral contractions (UP) induced by noradrenaline (NA). Description: Urethral contractions induced by noradrenaline injection in anaesthetised dogs, i.v. administration. The data set is classed as in vivo. The settings on record: dog; for ED50: Canis lupus familiaris, iv, dose inhibiting by 50% urethral contractions induced by noradrenaline, read-out: UP ID50 NA; for R1 (DBP/NA): ratio DBP ED25 / UP ID50 NA. Here is the method: (§1) The experiments were performed according to the method of Imagawa J. et al., J Pharmacol. Methods 22, 103-111 (1989), with substantial modifications, as follows: adult male beagle dogs, weighing 8-10 kg, were anaesthetised with pentobarbital sodium (30 mg/kg i.v. and 2 mg/kg/h i.v.), intubated and spontaneously ventilated with room air. In order to monitor systemic blood pressure (BP), a polyethylene (PE) catheter was introduced into the aortic arch through the left femoral artery. A collateral of the left femoral vein was cannulated for infusion of anaesthetic, and the right femoral vein was cannulated for administration of the compounds. For intraarterial (i.a.) injection of noradrenaline (NA), a PE catheter was introduced into the lower portion of the abdominal aorta via the right external iliac artery. Through such procedure, NA was selectively distributed to the lower urinary tract. A paramedian vertical suprapubic incision extending from the base of the pelvis to the mid-abdominal region was made and the bladder and the prostate were exposed. The bladder was manually emptied with a syringe. […] The distal end of the right or left branch of the nerve was placed on a bipolar platinum electrode. Prostatic urethral pressure was monitored with a Mikro-tip cathe[…]) introduced into the bladder via the external urethral meatus, and withdrawn until the pressure transducer was positioned in the prostatic region of the urethra. A ligature was secured between the neck of the bladder and urethra to isolate the response of the latter and to avoid any interaction with the bladder. Another ligature was put around the Mikro-tip catheter at the external meatus, to secure the catheter itself. […] Both i.a. injections of NA and stimulations of the hypogastric nerve were repeated 5 minutes after every dosing of test compound with intervals of about 5 minutes between two stimulations. In order to compare the effects of the administered compound, dose/response curves were constructed by computing, at the peak effect, the percent decrease in diastolic blood pressure and the percent inhibition of the increase in urethral pressure induced by both types of stimulation used.

Data set [3] deals with urethral contractions (UP) induced by hypogastric-nerve stimulation (HYP). Description: Urethral contractions induced by hypogastric-nerve stimulation in anaesthetised dogs, i.v. administration. As to conditions: Canis lupus familiaris, iv, dog, dose inhibiting by 50% urethral contractions induced by hypogastric-nerve stimulation, read-out: UP ID50 HYP. The data set is classed as in vivo. Here is the method:
as §1, with “In order to compare the effects of the administered compound, dose/response curves were constructed by computing, at the peak effect, the percent decrease in diastolic blood pressure and the percent inhibition of the increase in urethral pressure induced by both types of stimulation used.” left out

In data set [4] the test system is diastolic blood pressure (DBP). Put plainly: Effect on diastolic blood pressure in anaesthetised dogs, i.v. administration. Format: in vivo. As to conditions: dog, dose inducing a 25% decrease in diastolic blood pressure, one value spanning c3 and c4. Here is the method: The experiments were performed according to the method of Imagawa J. et al., J Pharmacol. Methods 22, 103-111 (1989), with substantial modifications, as follows: adult male beagle dogs, weighing 8-10 kg, were anaesthetised with pentobarbital sodium (30 mg/kg i.v. and 2 mg/kg/h i.v.), intubated and spontaneously ventilated with room air. In order to monitor systemic blood pressure (BP), a polyethylene (PE) catheter was introduced into the aortic arch through the left femoral artery. A collateral of the left femoral vein was cannulated for infusion of anaesthetic, and the right femoral vein was cannulated for administration of the compounds. For intraarterial (i.a.) injection of noradrenaline (NA), a PE catheter was introduced into the lower portion of the abdominal aorta via the right external iliac artery. Through such procedure, NA was selectively distributed to the lower urinary tract. A paramedian vertical suprapubic incision extending from the base of the pelvis to the mid-abdominal region was made and the bladder and the prostate were exposed. The bladder was manually emptied with a syringe. […] The distal end of the right or left branch of the nerve was placed on a bipolar platinum electrode. Prostatic urethral pressure was monitored with a Mikro-tip catheter (5F) introduced into the bladder via the external urethral meatus, and withdrawn until the pressure transducer was positioned in the prostatic region of the urethra. A ligature was secured between the neck of the bladder and urethra to isolate the response of the latter and to avoid any interaction with the bladder. Another ligature was put around the Mikro-tip catheter at the external meatus, to secure the catheter itself. The hypogastric nerve stimulation was made with a train of rectangular pulses of 10-15 V, 10-30 Hz, width 5 msec, 8 sec duration.
After a stabilising period following the surgical procedure (30 minutes), in which arterial and prostatic urethral pressure were continuously monitored as basal values, i.a. administration of NA and stimulation of the hypogastric nerve were alternately made at intervals of 10 minutes.
The dose of NA and the parameter of hypogastric nerve stimulation chosen were such as to produce an increase of at least 100% in urethral pressure. The test compounds were administered i.v. in a cumulative manner with intervals of 15-20 min between administrations. Both i.a. injections of NA and stimulations of the hypogastric nerve were repeated 5 minutes after every dosing of test compound with intervals of about 5 minutes between two stimulations. […]

Data set [5] has as its target T1, α1a adrenergic receptor (Homo sapiens, UniProt P35348).
T1 sequence (P35348 1-466): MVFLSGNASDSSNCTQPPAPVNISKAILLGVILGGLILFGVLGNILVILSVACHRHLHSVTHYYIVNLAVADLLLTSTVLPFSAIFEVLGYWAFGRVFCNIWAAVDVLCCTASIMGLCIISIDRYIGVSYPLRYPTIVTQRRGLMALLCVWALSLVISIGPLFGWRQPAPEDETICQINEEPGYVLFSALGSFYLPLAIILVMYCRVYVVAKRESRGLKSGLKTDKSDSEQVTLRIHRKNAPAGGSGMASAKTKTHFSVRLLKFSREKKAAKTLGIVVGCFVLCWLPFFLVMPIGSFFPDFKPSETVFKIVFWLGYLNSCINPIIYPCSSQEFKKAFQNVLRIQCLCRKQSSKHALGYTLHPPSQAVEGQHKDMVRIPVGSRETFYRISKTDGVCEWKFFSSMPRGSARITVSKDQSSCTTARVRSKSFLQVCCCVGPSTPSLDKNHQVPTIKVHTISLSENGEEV
Description: Radioligand binding assay ([3H]prazosin) on cloned α1-adrenoceptor subtype, membranes of transfected cells.
Description: (§2) Determination of affinity for cloned subtypes of the cloned α1-adrenoceptor was performed in membranes from cells transfected by electroporation with DNA expressing the genes encoding each α1-adrenoceptor subtype.
(§3) Non-specific binding was determined in the presence of 10 µM phentolamine. Incubation was stopped by addition of ice-cold Tris buffer and rapid filtration through 0.2%-polyethyleneimine pretreated Schleicher & Schuell GF52 filters. […] The homogenates were centrifuged at 40000 × g × 20 minutes and the membranes were resuspended in a small volume of ice-cold buffer containing Tris 5 mM and EDTA 5 mM (pH 7.4) and immediately frozen and stored at -70°C until use.
Data were expressed as mean of Ki.

The target of data set [6] is T2, recombinant α1d-adrenoceptor (Homo sapiens, UniProt P25100).
T2 sequence (P25100 1-572): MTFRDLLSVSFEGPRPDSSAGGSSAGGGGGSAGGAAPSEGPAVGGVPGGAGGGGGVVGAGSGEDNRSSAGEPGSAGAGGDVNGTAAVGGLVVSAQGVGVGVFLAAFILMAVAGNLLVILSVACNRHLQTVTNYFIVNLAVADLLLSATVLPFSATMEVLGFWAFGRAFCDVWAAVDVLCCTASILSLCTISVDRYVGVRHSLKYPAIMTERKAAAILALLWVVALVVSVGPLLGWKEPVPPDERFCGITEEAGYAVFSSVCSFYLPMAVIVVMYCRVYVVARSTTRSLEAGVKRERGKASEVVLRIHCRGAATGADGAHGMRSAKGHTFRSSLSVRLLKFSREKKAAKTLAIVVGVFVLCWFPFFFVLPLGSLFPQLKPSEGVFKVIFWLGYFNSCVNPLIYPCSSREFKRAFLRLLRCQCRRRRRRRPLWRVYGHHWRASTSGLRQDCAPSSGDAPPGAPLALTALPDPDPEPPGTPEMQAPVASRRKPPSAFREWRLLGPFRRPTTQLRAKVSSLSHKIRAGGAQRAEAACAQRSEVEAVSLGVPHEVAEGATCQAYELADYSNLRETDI
The description is as above.
Description: as §2, §3
Data were expressed as mean of Ki.

The structures appear in SMILES notation.

Take `Cc1onc(-c2ccccc2)c1C(=O)NCCCN1CCN(c2cc(F)ccc2OCC(F)(F)F)CC1` [Example 5, N-{3-[4-[5-Fluoro-2-(2,2,2-trifluoroethoxy)-phenyl]-1-piperazinyl]-propyl}-5-methyl-3-phenylisoxazole-4-carboxamide]: the negative-log Kb (pKb) in data set [1] was determined as 8.79. Moreover, in data set [2], the ED50 was found to be 2.7 µg/kg and the “R1 (DBP/NA)” value is listed as 73. Also, the ED50 in data set [3] stood at 3.4 µg/kg. The “DBP ED25” value in data set [4] is 197.0 µg/kg.
Take `Cc1onc(-c2ccccc2)c1C(=O)NCCCN1CCN(c2ccccc2OCC(F)(F)F)CC1` [Example 3, 5-Methyl-3-phenyl-N-{3-[4-[2-(2,2,2-trifluoroethoxy)-phenyl]-1-piperazinyl]-propyl}isoxazole-4-carboxamide]: in data set [1], the pKb stood at 8.47. The values for the ED50 in data set [2] and in data set [3] were 1.3 µg/kg and 2.4 µg/kg, respectively. In addition, the “R1 (DBP/NA)” value in data set [2] was 396. Also, the “DBP ED25” value in data set [4] is recorded as 514.7 µg/kg. Also, the Ki was 0.066 nM in data set [5] and 1.45 nM in data set [6].
